Results from US8766005B2, “Process for producing fingolimod salts” (Ratiopharm GmbH, priority 2009, dated 2014).

Experiment: dissolution profile before and after storage
Format: physicochemical
Settings: during shelf life

For `CCCCCCCCc1ccc(CCC(N)(CO)CO)cc1.Cl` [polymorphic form B, fingolimod hydrochloride], which “dissolution profile before and after storage” value is on record?
The value was “constant”.
